# Test results: patent US4450269A, “Mono-5-substituted-3-chloro-4H-1,2,6-thiadiazin-4-one antifungal agents” (FMC Corporation, priority 1980, dated 1984)
# Tests used:
# Cladosporium cucumerinum = assay: Spore germination test; assay type: cell-based; settings: CC, 48 hours
# Method in brief: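 Compound in acetone mixed into water agar at 40, 10, 2.5 and 1 ppm; plates seeded with spore suspension and incubated 48 hours at 24 °C. Percentage germinated spores counted and converted into a germination rating.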
# Pyricularia oryzae = assay: microbe, parasite or virus in culture; assay type: cell-based; settings: for inhibition at 5 ppm / inhibition at 10 ppm / inhibition at 20 ppm / inhibition at 40 ppm: Pyricularia oryzae, 72 h; for inhibition at 5 ppm: read-out: Percent Fungus Growth Inhibition, PO, 5 ppm, 72 hours; for inhibition at 10 ppm: read-out: Percent Fungus Growth Inhibition, PO, 10 ppm, 72 hours; for inhibition at 20 ppm: read-out: Percent Fungus Growth Inhibition, PO, 20 ppm, 72 hours; for inhibition at 40 ppm: read-out: Percent Fungus Growth Inhibition, PO, 40 ppm, 72 hours; for Percent Fungus Growth Inhibition: PO, 72 hours
# Fusarium solani = assay: Soil treatment, bean root rot; assay type: in vivo; settings: Fusarium solani, soil, 336 h; 150 ppm suspension, 3.8 mg active per pot; read-out: Percent Disease Control, seed/soil, bean root rot
# Method in brief: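 Soil around bean seedlings was drenched with a 150 ppm suspension, giving 3.8 mg active per pot. Twenty-four hours later the soil was inoculated with minced Fusarium solani mycelium. Plants were kept in a greenhouse, and percent control of root rot damage was scored after fourteen days.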
# Cercospora beticola = assay: whole plant or invertebrate; settings: in Beta vulgaris, foliar, 24 h, read-out: Percent Disease Control, curative, sugar beet leaf spot
SMILES,Spore Germination Rating (Cladosporium cucumerinum; 1.0 ppm),Spore Germination Rating (Cladosporium cucumerinum; 2.5 ppm),Spore Germination Rating (Cladosporium cucumerinum; 10 ppm),Spore Germination Rating (Cladosporium cucumerinum; 40 ppm),inhibition at 5 ppm (Pyricularia oryzae),inhibition at 10 ppm (Pyricularia oryzae),inhibition at 20 ppm (Pyricularia oryzae),inhibition at 40 ppm (Pyricularia oryzae),"pest or weed control at 150 ppm, 3.8 mg/pot (Fusarium solani)",pest or weed control at 150 ppm (Cercospora beticola),Percent Fungus Growth Inhibition (Pyricularia oryzae; 5 ppm),Percent Fungus Growth Inhibition (Pyricularia oryzae; 10 ppm),Percent Fungus Growth Inhibition (Pyricularia oryzae; 20 ppm)
"Cc1ccc(Oc2nsnc(Cl)c2=O)c(C)c1 [Compound 23, 3-chloro-5-(2,4-dimethylphenoxy)-4H--1,2,6-thiadiazin-4-one]",4 (80-100),1 (10-40),0 (0-10),0 (0-10),21%,42%,46%,58%,0%,100%,–,–,–
"Cc1cccc(C)c1Oc1nsnc(Cl)c1=O [Compound 24, 3-chloro-5-(2,6-dimethylphenoxy)-4H--1,2,6-thiadiazin-4-one]",0 (0-10),0 (0-10),0 (0-10),0 (0-10),21%,42%,63%,100%,0%,50%,–,–,–
"Cc1cc(C)cc(Oc2nsnc(Cl)c2=O)c1 [Compound 25, 3-chloro-5-(3,5-dimethylphenoxy)-4H--1,2,6-thiadiazin-4-one]",0 (0-10),0 (0-10),0 (0-10),0 (0-10),33%,58%,54%,63%,0%,50%,–,–,–
"Nc1ccc(Oc2nsnc(Cl)c2=O)cc1 [Compound 26, 5-(4-aminophenoxy)-3-chloro-4H--1,2,6-thiadiazin-4-one]",1 (10-40),0 (0-10),0 (0-10),0 (0-10),–,–,–,100%,0%,95%,0%,48%,90%
"CNC(=O)Nc1ccc(Oc2nsnc(Cl)c2=O)cc1 [Compound 28, 3-chloro-5-[4-(3-methylureido)-phenoxy]-4H--1,2,6-thiadiazin-4-one]",2 (40-60),2 (40-60),1 (10-40),0 (0-10),24%,24%,52%,90%,95%,0%,–,–,–
"O=C(Nc1ccccc1)Nc1ccc(Oc2nsnc(Cl)c2=O)cc1 [Compound 29, 3-chloro-5-[4-(3-phenylureido)-phenoxy]-4H--1,2,6-thiadiazin-4-one]",2 (40-60),2 (40-60),2 (40-60),1 (10-40),19%,14%,0%,0%,0%,95%,–,–,–
"O=c1c(Cl)nsnc1Oc1c(Cl)cc(Cl)cc1Cl [Compound 30, 3-chloro-5-(2,4,6-trichlorophenoxy)-4H--1,2,6-thiadiazin-4-one]",0 (0-10),0 (0-10),0 (0-10),0 (0-10),10%,71%,84%,90%,0%,0%,–,–,–
"O=c1c(Cl)nsnc1Oc1c(Cl)c(Cl)c(Cl)c(Cl)c1Cl [Compound 31, 3-chloro-5-(pentachlorophenoxy)-4H--1,2,6-thiadiazine-4-one]",0 (0-10),0 (0-10),0 (0-10),0 (0-10),33%,48%,62%,57%,0%,0%,–,–,–
"O=c1c(Cl)nsnc1Oc1cccc2ccccc12 [Compound 32, 3-chloro-5(1-naphthoxy)-4H-1,2,6-thiadiazin-4-one]",0 (0-10),0 (0-10),0 (0-10),0 (0-10),67%,78%,100%,89%,0%,90%,–,–,–
"O=c1c(Cl)nsnc1Oc1ccccc1Br [Compound 34, 3-chloro-5-(2-bromophenoxy)-4H-1,2,6,-thiadiazin-4-one]",1 (10-40),0 (0-10),0 (0-10),0 (0-10),38%,65%,100%,100%,0%,0%,–,–,–
"CC(=O)Nc1cccc(Oc2nsnc(Cl)c2=O)c1 [Compound 42, 3-[(3-N--acetylamino)-phenoxy]-5-chloro-4H--1,2,6-thiadiazin-4-one]",4 (80-100),4 (80-100),3 (60-80),0 (0-10),7%,11%,32%,68%,90%,0%,–,–,–
"CC(=O)Nc1ccccc1Oc1nsnc(Cl)c1=O [Compound 43, 3-[(2-acetylamino)-phenoxy]-5-chloro-4H--1,2,6-thiadiazin-4-one]",4 (80-100),4 (80-100),2 (40-60),0 (0-10),13%,18%,24%,24%,0%,90%,–,–,–
"O=c1c(Cl)nsnc1Oc1cccc(C(F)(F)F)c1 [Compound 44, 3-chloro-5-[(3-trifluoromethyl)phenoxy]-4H--1,2,6-thiadiazin-4-one]",1 (10-40),0 (0-10),0 (0-10),0 (0-10),54%,71%,93%,100%,90%,0%,–,–,–
"O=C(O)Cc1ccccc1Oc1nsnc(Cl)c1=O [Compound 45, 3-(2-carboxymethylphenoxy)-5-chloro-4H--1,2,6-thiadiazin-4-one]",4 (80-100),4 (80-100),2 (40-60),0 (0-10),0%,0%,0%,11%,90%,90%,–,–,–
"CC(=O)c1ccc(Oc2nsnc(Cl)c2=O)cc1 [Compound 47, 3-(4-acetylphenoxy)-5-chloro-4H--1,2,6-thiadiazin-4-one]",0 (0-10),0 (0-10),0 (0-10),0 (0-10),78%,78%,100%,89%,95%,90%,–,–,–
"CC(=O)c1ccccc1Oc1nsnc(Cl)c1=O [Compound 49, 3-(2-acetylphenoxy)-5-chloro-4H--1,2,6-thiadiazin-4-one]",0 (0-10),0 (0-10),0 (0-10),0 (0-10),29%,38%,53%,74%,0%,0%,–,–,–
